Measurements: ChEMBL document CHEMBL3885881, “DrugMatrix”

Species: Rattus norvegicus
Test: DrugMatrix - Regimen: Daily Repeat
Format: toxicity, organism-based, Sprague-Dawley
Parameters: regimen Daily Repeat, gender Male, age 6-8 weeks
Conditions: in vivo, iv, vehicle 100 % SALINE; for URIC ACID / ALANINE AMINOTRANSFERASE / ALBUMIN / ALKALINE PHOSPHATASE / ASPARTATE AMINOTRANSFERASE / BLOOD UREA NITROGEN / CARBON DIOXIDE / CHLORIDE / CHOLESTEROL / CREATINE PHOSPHOKINASE / CREATININE / GLUCOSE / LACTATE DEHYDROGENASE / LIPASE / PHOSPHORUS / POTASSIUM / SODIUM / TOTAL BILIRUBIN / TOTAL PROTEIN: tissue Plasma; for ABSOLUTE BASOPHIL / ABSOLUTE EOSINOPHIL / ABSOLUTE LYMPHOCYTE / ABSOLUTE MONOCYTE / ABSOLUTE SEGMENTED NEUTROPHIL / BASOPHIL / EOSINOPHIL / ERYTHROCYTE COUNT / HEMATOCRIT / HEMOGLOBIN / LEUKOCYTE COUNT / LYMPHOCYTE / MEAN CORPUSCULAR HEMOGLOBIN / MEAN CORPUSCULAR HEMOGLOBIN CONCENTRATION / MEAN CORPUSCULAR VOLUME / MONOCYTE / NEUTROPHIL / NUCLEATED RED BLOOD CELLS / PLATELET COUNT: tissue Blood
[1] = 2 mg/kg, 120 h, dose level Low, time 5 day
[2] = 44 mg/kg, 72 h, dose level High, time 3 day
[3] = 44 mg/kg, 120 h, dose level High, time 5 day

SMILES: Cc1ccc(N(CC2=NCCN2)c2cccc(O)c2)cc1 [PHENTOLAMINE]
- URIC ACID (2 mg/kg, 72 h, dose level Low, time 3 day): 1.4 mg/dL
- ABSOLUTE BASOPHIL [1]: 0 CELLS/uL
- ABSOLUTE EOSINOPHIL [1]: 0 CELLS/uL
- ABSOLUTE LYMPHOCYTE [1]: 13096 CELLS/uL
- ABSOLUTE MONOCYTE [1]: 288 CELLS/uL
- ABSOLUTE SEGMENTED NEUTROPHIL [1]: 1016 CELLS/uL
- BASOPHIL [1]: 0%
- EOSINOPHIL [1]: 0%
- ERYTHROCYTE COUNT [1]: 6.03 x10E6/uL
- HEMATOCRIT [1]: 38.17%
- HEMOGLOBIN [1]: 14.2 G/DL
- LEUKOCYTE COUNT [1]: 14.4 x10E3/uL
- LYMPHOCYTE [1]: 91%
- MEAN CORPUSCULAR HEMOGLOBIN [1]: 23.53 pg
- MEAN CORPUSCULAR HEMOGLOBIN CONCENTRATION [1]: 37.2 G/DL
- MEAN CORPUSCULAR VOLUME [1]: 63.3 fL
- MONOCYTE [1]: 2%
- NEUTROPHIL [1]: 7%
- NUCLEATED RED BLOOD CELLS [1]: 0.67 /100WBC
- PLATELET COUNT [1]: 1406 x10E3/uL
- ALANINE AMINOTRANSFERASE [1]: 51.67 u/L
- ALBUMIN [1]: 4.47 G/DL
- ALKALINE PHOSPHATASE [1]: 440 u/L
- ASPARTATE AMINOTRANSFERASE [1]: 80 u/L
- BLOOD UREA NITROGEN [1]: 16.67 mg/dL
- CARBON DIOXIDE [1]: 20.33 mmol/L
- CHLORIDE [1]: 102.67 MEQ/L
- CHOLESTEROL [1]: 64.33 mg/dL
- CREATINE PHOSPHOKINASE [1]: 255.33 u/L
- CREATININE [1]: 0.17 mg/dL
- GLUCOSE [1]: 170.33 mg/dL
- LACTATE DEHYDROGENASE [1]: 112.33 u/L
- LIPASE [1]: 10 u/L
- PHOSPHORUS [1]: 12.37 mg/dL
- POTASSIUM [1]: 6.89 MEQ/L
- SODIUM [1]: 145.97 MEQ/L
- TOTAL BILIRUBIN [1]: 0.23 mg/dL
- URIC ACID [1]: 1.8 mg/dL
- ABSOLUTE BASOPHIL [2]: 0 CELLS/uL
- ABSOLUTE EOSINOPHIL [2]: 0 CELLS/uL
- ABSOLUTE LYMPHOCYTE [2]: 13788 CELLS/uL
- ABSOLUTE MONOCYTE [2]: 136.33 CELLS/uL
- ABSOLUTE SEGMENTED NEUTROPHIL [2]: 1109 CELLS/uL
- BASOPHIL [2]: 0%
- EOSINOPHIL [2]: 0%
- ERYTHROCYTE COUNT [2]: 5.51 x10E6/uL
- HEMATOCRIT [2]: 35.77%
- HEMOGLOBIN [2]: 13.13 G/DL
- LEUKOCYTE COUNT [2]: 15.03 x10E3/uL
- LYMPHOCYTE [2]: 91.33%
- MEAN CORPUSCULAR HEMOGLOBIN [2]: 23.9 pg
- MEAN CORPUSCULAR HEMOGLOBIN CONCENTRATION [2]: 36.73 G/DL
- MEAN CORPUSCULAR VOLUME [2]: 65 fL
- MONOCYTE [2]: 1%
- NEUTROPHIL [2]: 7.67%
- NUCLEATED RED BLOOD CELLS [2]: 0.67 /100WBC
- PLATELET COUNT [2]: 1392 x10E3/uL
- ALANINE AMINOTRANSFERASE [2]: 54.67 u/L
- ALBUMIN [2]: 4.3 G/DL
- ALKALINE PHOSPHATASE [2]: 373 u/L
- ASPARTATE AMINOTRANSFERASE [2]: 66.67 u/L
- BLOOD UREA NITROGEN [2]: 17.33 mg/dL
- CARBON DIOXIDE [2]: 20.33 mmol/L
- CHLORIDE [2]: 100.67 MEQ/L
- CHOLESTEROL [2]: 81.33 mg/dL
- CREATINE PHOSPHOKINASE [2]: 188.33 u/L
- CREATININE [2]: 0.22 mg/dL
- GLUCOSE [2]: 163.67 mg/dL
- LACTATE DEHYDROGENASE [2]: 78 u/L
- LIPASE [2]: 10.67 u/L
- PHOSPHORUS [2]: 10.77 mg/dL
- POTASSIUM [2]: 6.6 MEQ/L
- SODIUM [2]: 143.67 MEQ/L
- TOTAL BILIRUBIN [2]: 0.23 mg/dL
- TOTAL PROTEIN [2]: 6.03 G/DL
- URIC ACID [2]: 1.53 mg/dL
- ABSOLUTE BASOPHIL [3]: 0 CELLS/uL
- ABSOLUTE EOSINOPHIL [3]: 0 CELLS/uL
- ABSOLUTE LYMPHOCYTE [3]: 13982.67 CELLS/uL
- ABSOLUTE MONOCYTE [3]: 349.33 CELLS/uL
- ABSOLUTE SEGMENTED NEUTROPHIL [3]: 3068 CELLS/uL
- BASOPHIL [3]: 0%
- EOSINOPHIL [3]: 0%
- ERYTHROCYTE COUNT [3]: 5.76 x10E6/uL
- HEMATOCRIT [3]: 36.83%
- HEMOGLOBIN [3]: 13.87 G/DL
- LEUKOCYTE COUNT [3]: 17.4 x10E3/uL
- LYMPHOCYTE [3]: 81.33%
- MEAN CORPUSCULAR HEMOGLOBIN [3]: 24.1 pg
- MEAN CORPUSCULAR HEMOGLOBIN CONCENTRATION [3]: 37.67 G/DL
- MEAN CORPUSCULAR VOLUME [3]: 64.07 fL
- MONOCYTE [3]: 2%
- NEUTROPHIL [3]: 16.67%
- NUCLEATED RED BLOOD CELLS [3]: 0 /100WBC
- PLATELET COUNT [3]: 1344.67 x10E3/uL
- ALANINE AMINOTRANSFERASE [3]: 54.67 u/L
- ALBUMIN [3]: 4.33 G/DL
- ALKALINE PHOSPHATASE [3]: 353 u/L
- ASPARTATE AMINOTRANSFERASE [3]: 75.67 u/L
- BLOOD UREA NITROGEN [3]: 16.33 mg/dL
- CARBON DIOXIDE [3]: 29.33 mmol/L
- CHLORIDE [3]: 103.33 MEQ/L
- CHOLESTEROL [3]: 81 mg/dL
- CREATINE PHOSPHOKINASE [3]: 410.67 u/L
- CREATININE [3]: 0.19 mg/dL
- GLUCOSE [3]: 200.33 mg/dL
- LACTATE DEHYDROGENASE [3]: 220.67 u/L
- LIPASE [3]: 11 u/L
- PHOSPHORUS [3]: 11.43 mg/dL
- POTASSIUM [3]: 6.26 MEQ/L
- SODIUM [3]: 144.07 MEQ/L
- TOTAL BILIRUBIN [3]: 0.17 mg/dL
- TOTAL PROTEIN [3]: 6.43 G/DL
- URIC ACID [3]: 2.13 mg/dL
